Assay results: ChEMBL document CHEMBL4706755, “Novel Small Molecule RNA m6A Demethylase AlkBH5 Inhibitors for Treating Cancer” (ACS Med Chem Lett, 2021)

Molecular target: RNA demethylase ALKBH5 (Homo sapiens, UniProt Q6P6C2)
Test: Inhibition of ALKBH5 demethylase activity (unknown origin) assessed as increase in methylated 6A-RNA level incubated for 2 hrs by colorimetric analysis

Sequence of RNA demethylase ALKBH5 (Q6P6C2 whole entry): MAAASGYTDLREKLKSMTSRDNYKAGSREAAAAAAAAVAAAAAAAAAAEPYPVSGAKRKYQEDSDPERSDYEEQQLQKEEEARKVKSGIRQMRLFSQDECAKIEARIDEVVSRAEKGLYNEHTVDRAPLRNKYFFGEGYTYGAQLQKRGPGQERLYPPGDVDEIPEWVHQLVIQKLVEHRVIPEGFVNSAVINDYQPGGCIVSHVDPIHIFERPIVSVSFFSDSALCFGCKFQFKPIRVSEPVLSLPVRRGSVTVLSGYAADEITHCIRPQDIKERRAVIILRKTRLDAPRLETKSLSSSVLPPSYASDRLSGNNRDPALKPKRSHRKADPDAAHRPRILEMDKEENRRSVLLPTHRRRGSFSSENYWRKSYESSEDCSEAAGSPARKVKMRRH

O=C(O)CSC(O)C(=O)c1ccccc1 (stereo unspecified)
IC50: 0.84 µM
